# Assays:
# [1] = molecular target: T1, Prostaglandin G/H synthase 1 (Homo sapiens, UniProt P23219); assay type: functional
# [2] = molecular target: cGMP-inhibited 3',5'-cyclic phosphodiesterase 3A (Homo sapiens, UniProt Q14432); assay type: functional
# Thromboxane A2 receptor [3] = molecular target: T2, Thromboxane A2 receptor (Homo sapiens, UniProt P21731); assay type: functional, cell-based
# T2 sequence (P21731 whole entry): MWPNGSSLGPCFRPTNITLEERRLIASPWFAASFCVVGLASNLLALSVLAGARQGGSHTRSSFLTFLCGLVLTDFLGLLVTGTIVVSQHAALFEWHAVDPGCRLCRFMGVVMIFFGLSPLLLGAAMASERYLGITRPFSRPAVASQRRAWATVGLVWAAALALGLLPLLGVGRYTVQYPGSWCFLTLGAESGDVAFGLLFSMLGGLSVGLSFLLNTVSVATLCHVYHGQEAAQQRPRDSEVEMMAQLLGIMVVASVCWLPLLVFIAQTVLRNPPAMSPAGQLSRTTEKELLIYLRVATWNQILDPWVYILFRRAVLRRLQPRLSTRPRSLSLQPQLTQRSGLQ
# [4] = molecular target: T3, Alpha-2A adrenergic receptor (Homo sapiens, UniProt P08913)
# T3 sequence (P08913 whole entry): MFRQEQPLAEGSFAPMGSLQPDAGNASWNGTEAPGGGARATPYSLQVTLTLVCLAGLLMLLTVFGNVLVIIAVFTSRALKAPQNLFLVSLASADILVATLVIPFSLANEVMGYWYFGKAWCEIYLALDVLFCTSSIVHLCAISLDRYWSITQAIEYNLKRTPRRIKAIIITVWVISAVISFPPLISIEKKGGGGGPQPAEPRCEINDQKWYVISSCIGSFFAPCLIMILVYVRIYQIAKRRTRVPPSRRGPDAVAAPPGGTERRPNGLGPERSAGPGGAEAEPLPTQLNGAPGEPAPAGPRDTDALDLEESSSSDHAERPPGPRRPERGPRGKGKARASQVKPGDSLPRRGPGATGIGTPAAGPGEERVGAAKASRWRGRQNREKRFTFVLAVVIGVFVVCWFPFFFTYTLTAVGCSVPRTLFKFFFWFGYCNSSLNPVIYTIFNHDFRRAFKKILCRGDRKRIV
# Acetylcholinesterase = Acetylcholinesterase (Homo sapiens, UniProt P22303); assay type: functional
# Acetylcholinesterase, sequence (P22303 whole entry): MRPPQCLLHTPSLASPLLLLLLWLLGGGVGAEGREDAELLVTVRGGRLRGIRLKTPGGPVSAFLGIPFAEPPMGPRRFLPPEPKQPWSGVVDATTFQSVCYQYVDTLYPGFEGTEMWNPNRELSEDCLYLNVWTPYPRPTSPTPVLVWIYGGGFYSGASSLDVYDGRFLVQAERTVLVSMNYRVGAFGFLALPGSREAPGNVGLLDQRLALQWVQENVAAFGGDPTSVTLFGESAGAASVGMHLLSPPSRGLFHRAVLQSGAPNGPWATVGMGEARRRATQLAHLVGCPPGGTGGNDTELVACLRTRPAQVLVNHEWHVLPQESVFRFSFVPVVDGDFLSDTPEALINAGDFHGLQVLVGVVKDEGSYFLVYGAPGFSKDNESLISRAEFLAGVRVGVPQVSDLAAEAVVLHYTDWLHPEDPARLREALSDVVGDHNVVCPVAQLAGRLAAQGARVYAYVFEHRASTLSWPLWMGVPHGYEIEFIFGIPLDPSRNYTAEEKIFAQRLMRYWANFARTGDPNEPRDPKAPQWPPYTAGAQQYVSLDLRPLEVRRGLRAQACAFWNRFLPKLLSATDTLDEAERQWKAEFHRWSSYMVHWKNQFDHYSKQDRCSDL
# [5] = molecular target: T4, 5-hydroxytryptamine receptor 1A (Homo sapiens, UniProt P08908)
# T4 sequence (P08908 whole entry): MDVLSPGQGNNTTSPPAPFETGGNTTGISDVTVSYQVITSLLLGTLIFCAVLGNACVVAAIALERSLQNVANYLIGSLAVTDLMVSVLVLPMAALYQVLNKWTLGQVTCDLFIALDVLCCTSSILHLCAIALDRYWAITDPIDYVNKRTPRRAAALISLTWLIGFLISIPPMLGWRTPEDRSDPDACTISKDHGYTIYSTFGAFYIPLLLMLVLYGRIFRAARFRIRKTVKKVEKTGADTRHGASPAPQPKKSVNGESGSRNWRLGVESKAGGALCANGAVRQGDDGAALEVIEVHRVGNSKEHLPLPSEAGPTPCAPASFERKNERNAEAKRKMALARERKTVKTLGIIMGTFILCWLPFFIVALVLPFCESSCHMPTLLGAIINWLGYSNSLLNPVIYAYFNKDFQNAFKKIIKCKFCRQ
# [6] = molecular target: 3',5'-cyclic-AMP phosphodiesterase 4A (Homo sapiens, UniProt P27815); assay type: functional
# 3',5'-cyclic-AMP phosphodiesterase 4A, sequence (P27815 whole entry): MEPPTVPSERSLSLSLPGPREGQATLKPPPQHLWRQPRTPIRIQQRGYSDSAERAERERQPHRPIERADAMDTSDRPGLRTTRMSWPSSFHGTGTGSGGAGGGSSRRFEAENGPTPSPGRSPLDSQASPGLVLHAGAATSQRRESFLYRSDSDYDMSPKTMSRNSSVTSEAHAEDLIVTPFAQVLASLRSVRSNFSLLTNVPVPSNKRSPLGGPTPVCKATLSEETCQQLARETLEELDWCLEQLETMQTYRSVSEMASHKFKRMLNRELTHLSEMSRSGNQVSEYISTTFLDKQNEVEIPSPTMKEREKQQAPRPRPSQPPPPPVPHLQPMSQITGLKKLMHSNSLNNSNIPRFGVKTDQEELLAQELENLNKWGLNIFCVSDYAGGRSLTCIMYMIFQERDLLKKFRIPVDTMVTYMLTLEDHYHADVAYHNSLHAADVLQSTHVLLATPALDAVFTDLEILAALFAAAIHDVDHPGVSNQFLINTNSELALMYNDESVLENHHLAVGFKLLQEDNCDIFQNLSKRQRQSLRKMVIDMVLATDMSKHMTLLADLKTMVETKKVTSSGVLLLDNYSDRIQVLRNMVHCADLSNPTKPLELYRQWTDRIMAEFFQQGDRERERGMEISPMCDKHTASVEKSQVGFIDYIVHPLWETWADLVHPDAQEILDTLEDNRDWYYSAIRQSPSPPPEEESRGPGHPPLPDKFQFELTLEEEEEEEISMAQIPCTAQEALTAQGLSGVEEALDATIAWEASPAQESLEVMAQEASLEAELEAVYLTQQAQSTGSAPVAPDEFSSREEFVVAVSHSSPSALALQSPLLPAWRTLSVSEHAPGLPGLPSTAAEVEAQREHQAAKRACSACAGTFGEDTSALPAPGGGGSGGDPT
# [7] = molecular target: T5, Amine oxidase [flavin-containing] A (Homo sapiens, UniProt P21397); assay type: functional
# T5 sequence (P21397 whole entry): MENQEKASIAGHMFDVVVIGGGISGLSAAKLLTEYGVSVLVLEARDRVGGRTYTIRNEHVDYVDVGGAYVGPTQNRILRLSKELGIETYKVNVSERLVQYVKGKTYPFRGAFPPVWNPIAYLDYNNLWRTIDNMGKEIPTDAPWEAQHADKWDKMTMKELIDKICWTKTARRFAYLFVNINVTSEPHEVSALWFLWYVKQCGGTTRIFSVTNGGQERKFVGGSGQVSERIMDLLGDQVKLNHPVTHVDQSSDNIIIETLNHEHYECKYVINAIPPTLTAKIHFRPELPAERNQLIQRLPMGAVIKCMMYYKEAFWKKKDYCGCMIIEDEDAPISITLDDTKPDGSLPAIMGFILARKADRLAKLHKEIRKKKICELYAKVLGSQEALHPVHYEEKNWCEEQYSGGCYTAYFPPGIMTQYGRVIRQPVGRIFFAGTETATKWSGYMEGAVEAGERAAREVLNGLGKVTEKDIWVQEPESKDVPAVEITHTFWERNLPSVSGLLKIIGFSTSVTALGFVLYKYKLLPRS
# Bile salt export pump = Bile salt export pump (Homo sapiens, UniProt O95342); assay type: functional
# Bile salt export pump, sequence (O95342 whole entry): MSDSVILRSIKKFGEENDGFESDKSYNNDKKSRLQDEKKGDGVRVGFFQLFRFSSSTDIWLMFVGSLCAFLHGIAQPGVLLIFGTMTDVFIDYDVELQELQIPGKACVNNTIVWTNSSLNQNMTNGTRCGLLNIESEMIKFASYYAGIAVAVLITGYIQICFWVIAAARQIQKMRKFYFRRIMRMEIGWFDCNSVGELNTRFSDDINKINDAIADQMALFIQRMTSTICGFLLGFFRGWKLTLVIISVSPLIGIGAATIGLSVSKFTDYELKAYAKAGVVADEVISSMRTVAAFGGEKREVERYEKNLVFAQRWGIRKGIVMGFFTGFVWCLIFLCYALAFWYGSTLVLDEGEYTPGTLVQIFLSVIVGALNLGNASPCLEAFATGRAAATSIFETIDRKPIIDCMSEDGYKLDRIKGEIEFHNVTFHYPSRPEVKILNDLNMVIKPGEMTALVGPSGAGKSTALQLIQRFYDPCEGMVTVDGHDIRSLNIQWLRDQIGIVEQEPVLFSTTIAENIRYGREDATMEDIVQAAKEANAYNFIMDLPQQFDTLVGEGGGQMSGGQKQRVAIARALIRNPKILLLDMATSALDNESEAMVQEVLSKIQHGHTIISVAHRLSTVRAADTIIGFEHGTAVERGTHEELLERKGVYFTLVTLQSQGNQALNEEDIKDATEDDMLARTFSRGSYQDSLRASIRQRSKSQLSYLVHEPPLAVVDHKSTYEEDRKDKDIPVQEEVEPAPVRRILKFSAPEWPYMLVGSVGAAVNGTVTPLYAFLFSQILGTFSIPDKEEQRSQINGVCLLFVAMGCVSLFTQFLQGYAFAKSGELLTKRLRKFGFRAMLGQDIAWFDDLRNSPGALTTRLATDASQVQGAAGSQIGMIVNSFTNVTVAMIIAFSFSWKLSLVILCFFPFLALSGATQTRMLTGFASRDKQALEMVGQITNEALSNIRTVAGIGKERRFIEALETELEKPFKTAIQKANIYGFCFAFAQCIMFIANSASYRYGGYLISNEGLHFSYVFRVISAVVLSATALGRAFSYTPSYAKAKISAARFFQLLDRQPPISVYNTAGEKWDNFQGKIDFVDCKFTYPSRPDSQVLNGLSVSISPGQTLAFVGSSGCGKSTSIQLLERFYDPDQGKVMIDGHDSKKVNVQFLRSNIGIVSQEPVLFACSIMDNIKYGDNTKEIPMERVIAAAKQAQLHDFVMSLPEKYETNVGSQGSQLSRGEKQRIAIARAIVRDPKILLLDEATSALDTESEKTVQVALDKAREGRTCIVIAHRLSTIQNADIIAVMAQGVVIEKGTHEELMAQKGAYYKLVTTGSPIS
# Mu-type opioid receptor = Mu-type opioid receptor (Homo sapiens, UniProt P35372)
# Prothrombin = Prothrombin (Homo sapiens, UniProt P00734); assay type: functional
# [8] = molecular target: T1, Prostaglandin G/H synthase 1; assay type: functional; remark: listed apart in the source
# D(3) dopamine receptor = D(3) dopamine receptor (Homo sapiens, UniProt P35462)
# Thromboxane A2 receptor [9] = molecular target: T2, Thromboxane A2 receptor; assay type: functional, cell-based; remark: listed apart in the source
# Histamine H3 receptor = Histamine H3 receptor (Homo sapiens, UniProt Q9Y5N1)
# Histamine H3 receptor, sequence (Q9Y5N1 whole entry): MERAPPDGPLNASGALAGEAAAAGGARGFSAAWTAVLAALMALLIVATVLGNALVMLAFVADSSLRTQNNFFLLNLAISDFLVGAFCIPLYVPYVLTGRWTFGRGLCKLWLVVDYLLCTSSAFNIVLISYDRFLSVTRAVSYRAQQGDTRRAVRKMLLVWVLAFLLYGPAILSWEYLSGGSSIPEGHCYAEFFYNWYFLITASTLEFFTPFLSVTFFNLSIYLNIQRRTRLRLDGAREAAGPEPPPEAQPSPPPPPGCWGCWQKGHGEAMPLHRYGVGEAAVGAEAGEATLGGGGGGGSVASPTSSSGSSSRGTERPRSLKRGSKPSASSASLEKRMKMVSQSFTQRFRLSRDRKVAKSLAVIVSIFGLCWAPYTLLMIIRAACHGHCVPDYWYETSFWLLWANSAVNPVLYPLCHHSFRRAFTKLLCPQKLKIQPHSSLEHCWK
# [10] = molecular target: T6, Muscarinic acetylcholine receptor M2 (Homo sapiens, UniProt P08172)
# T6 sequence (P08172 whole entry): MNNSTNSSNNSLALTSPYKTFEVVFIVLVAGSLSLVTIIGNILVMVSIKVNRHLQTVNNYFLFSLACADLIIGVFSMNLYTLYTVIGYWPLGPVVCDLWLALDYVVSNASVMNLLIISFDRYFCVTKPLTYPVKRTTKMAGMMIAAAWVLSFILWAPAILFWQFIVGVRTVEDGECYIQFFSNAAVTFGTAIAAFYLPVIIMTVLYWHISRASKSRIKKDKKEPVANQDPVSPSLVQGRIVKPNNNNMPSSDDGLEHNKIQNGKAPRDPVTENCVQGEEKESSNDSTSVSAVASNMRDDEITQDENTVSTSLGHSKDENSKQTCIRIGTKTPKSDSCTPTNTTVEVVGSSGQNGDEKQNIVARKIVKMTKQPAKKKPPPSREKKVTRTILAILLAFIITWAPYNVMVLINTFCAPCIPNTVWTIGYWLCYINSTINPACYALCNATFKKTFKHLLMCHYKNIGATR
# Also: assay procedure not described here.
# T1 sequence (P23219 whole entry): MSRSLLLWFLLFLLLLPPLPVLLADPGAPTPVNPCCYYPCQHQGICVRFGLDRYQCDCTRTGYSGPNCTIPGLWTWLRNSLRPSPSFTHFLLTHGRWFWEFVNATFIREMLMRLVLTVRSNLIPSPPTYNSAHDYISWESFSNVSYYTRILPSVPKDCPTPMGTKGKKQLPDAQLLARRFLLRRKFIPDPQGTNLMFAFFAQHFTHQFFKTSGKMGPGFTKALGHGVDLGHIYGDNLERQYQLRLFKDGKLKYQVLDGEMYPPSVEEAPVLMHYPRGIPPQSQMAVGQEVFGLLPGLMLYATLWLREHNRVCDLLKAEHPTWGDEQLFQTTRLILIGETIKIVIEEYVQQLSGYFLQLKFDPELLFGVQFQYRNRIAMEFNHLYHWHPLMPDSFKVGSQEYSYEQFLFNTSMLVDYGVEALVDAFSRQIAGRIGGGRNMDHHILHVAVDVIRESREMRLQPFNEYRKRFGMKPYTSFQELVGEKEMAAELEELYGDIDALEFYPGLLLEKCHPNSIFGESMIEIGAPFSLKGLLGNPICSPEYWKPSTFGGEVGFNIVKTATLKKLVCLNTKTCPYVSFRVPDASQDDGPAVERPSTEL
# cGMP-inhibited 3',5'-cyclic phosphodiesterase 3A, sequence (Q14432 whole entry): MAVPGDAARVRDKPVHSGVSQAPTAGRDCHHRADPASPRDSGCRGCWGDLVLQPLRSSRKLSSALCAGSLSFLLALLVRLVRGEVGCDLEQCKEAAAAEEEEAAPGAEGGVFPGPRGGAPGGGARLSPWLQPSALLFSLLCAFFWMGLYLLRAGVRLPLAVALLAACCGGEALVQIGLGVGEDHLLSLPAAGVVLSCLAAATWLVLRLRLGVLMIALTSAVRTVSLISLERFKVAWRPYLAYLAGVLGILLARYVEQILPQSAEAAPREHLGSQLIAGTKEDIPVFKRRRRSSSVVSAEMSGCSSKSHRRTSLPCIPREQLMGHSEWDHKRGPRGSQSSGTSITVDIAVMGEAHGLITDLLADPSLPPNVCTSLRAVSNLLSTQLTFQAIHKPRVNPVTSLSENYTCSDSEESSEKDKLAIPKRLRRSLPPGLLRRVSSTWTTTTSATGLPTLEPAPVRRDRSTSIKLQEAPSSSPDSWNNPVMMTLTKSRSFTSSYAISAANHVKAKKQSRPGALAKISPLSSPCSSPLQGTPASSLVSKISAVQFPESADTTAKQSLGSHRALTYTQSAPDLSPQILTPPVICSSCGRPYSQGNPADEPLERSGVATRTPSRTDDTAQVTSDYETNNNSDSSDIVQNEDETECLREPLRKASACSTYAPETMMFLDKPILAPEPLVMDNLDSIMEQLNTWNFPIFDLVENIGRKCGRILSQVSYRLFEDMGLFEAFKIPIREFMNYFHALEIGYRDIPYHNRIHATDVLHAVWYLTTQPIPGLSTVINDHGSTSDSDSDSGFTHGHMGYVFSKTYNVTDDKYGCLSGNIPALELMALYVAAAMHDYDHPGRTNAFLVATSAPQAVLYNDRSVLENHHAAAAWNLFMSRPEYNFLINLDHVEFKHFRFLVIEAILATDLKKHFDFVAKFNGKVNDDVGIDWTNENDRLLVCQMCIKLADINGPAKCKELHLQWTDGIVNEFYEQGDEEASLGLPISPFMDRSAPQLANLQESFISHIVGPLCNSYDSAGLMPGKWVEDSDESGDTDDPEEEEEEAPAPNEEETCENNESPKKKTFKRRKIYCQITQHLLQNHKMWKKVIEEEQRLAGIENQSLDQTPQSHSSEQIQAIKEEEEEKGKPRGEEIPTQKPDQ
SMILES,AC50 [1] [µM],AC50 [2] [µM],AC50 (Thromboxane A2 receptor [3]) [µM],AC50 [4] [µM],AC50 (Acetylcholinesterase) [µM],AC50 [5] [µM],AC50 [6] [µM],AC50 [7] [µM],AC50 (Bile salt export pump) [µM],AC50 (Mu-type opioid receptor) [µM],AC50 (Prothrombin) [µM],AC50 [8] [µM],AC50 (D(3) dopamine receptor) [µM],AC50 (Thromboxane A2 receptor [9]) [µM],AC50 (Histamine H3 receptor) [µM],AC50 [10] [µM]
CC(=O)/N=c1/sc(S(N)(=O)=O)nn1C [METHAZOLAMIDE],> 30,> 30,> 30,> 30,> 30,> 30,> 30,> 30,> 300,> 30,> 30,> 30,> 30,> 30,> 30,> 30
CCOc1ccc2ccccc2c1C(=O)N[C@@H]1C(=O)N2[C@@H]1SC(C)(C)[C@@H]2C(=O)O [NAFCILLIN],> 30,> 30,> 30,> 30,> 30,> 30,> 30,> 30,40,> 30,> 30,> 30,> 30,> 30,> 30,> 30
CCCCCCCCCCC[C@@H](C[C@@H]1OC(=O)[C@H]1CCCCCC)OC(=O)[C@H](CC(C)C)NC=O [ORLISTAT],> 30,> 30,> 30,> 30,–,> 30,> 30,> 30,> 300,> 30,> 30,> 30,> 30,> 30,> 30,> 30
CCCCCCCCNC(C)C(O)c1ccc(SC(C)C)cc1 (stereo unspecified) [SULOCTIDIL],> 30,> 30,–,6.75,> 30,0.216,20.9,> 30,64,7.07,> 30,15.5,0.671,> 10,27.4,3.41
Cn1c(=O)c2[nH]cnc2n(C)c1=O [THEOPHYLLINE],> 30,–,> 30,> 30,> 30,> 30,–,> 30,> 300,> 30,> 30,> 30,> 30,> 30,> 30,> 30
NCCc1ccc(O)cc1 [TYRAMINE],> 30,> 30,> 30,22,> 30,7.88,> 30,> 30,> 300,> 30,> 30,> 3,–,> 30,> 30,> 30

# — ChEMBL document CHEMBL5291721, “A preclinical secondary pharmacology resource illuminates target-adverse drug reaction associations of marketed drugs” (Nat Commun, 2023)
